Experimental data reported in patent US11800869B2, “Use of 6-oxo-1,4,5,6-tetrahydropyridazine-3-carboxylic acid, 1-methyl 6-oxo-1,4,5,6-tetrahydropyridazine-3-carboxylic acid and 1-alkyl-6-oxo-1,4,5,6-tetrahydropyridazine-3-carboxylic acid for improving growth performance in plants” (Advanced Crop Chem LLP, priority 2020, dated 2023).

Experiments:
Format in all cases: in vivo
[1] = system: Winter wheat variety AWC 13; test: Wheat seed treatment, greenhouse, root biomass (Example 1); conditions: seed treatment 10g per 1 ton of seed; greenhouse 21° C; 30 days after planting; untreated 0.65
Method: Wheat seeds were treated with 6-oxo-1,4,5,6 tetrahydropyridazine-3-carboxylic acid (THP) and treated plants to examine the impact on shoot and root biomass. Winter wheat variety AWC 13 seeds were treated with either 6-oxo-1,4,5,6-tetrahydropyridazine-3-carboxylic acid (THP) or 1-methyl 6-oxo-1,4,5,6 tetrahydropyridazine-3-carboxylic acid (MTHP) at an effective rate of 10g diluted in 2 L water plus 0.25% Nouryon wetter and applied to 1 ton of seed. These seed were planted in coarse river sand and grown in a greenhouse under ambient light at the greenhouse at 21° C. Plants were irrigated every other day with water containing 50% strength Hoaglands solution. Plants were assessed for emergence and biomass accumulation 30 days after planting. The plants from seeds treated with 6-oxo-1,4,5,6-tetrahydropyridizin-3-carboxylic acid or 1-methyl 6-oxo-1,4,5,6 tetrahydropyridazine-3-carboxylic acid had larger root biomasses (0.83, 0.85 g, dry weight/plant) compared with plants from untreated seeds (0.65 g dry weight/plant).

[2] = system: Wheat seeds; test: Wheat seed treatment, germination paper, shoot and root fresh weights (Example 9); conditions: pH 5.7-5.8, germination paper 75-85° F; for Shoot fresh weight: Control 27.4; for Roots fresh weight: Control 29.1
Method: Wheat seeds were treated with 6-oxo-1,4,5,6 tetrahydropyridazine-3-carboxylic acid and the shoot and root fresh weights as shown in Table 1. Shoot and root fresh weights at this stage are components of early seedling emergence which is important for early establishment of a vigorous and productive crop. Wheat seeds were treated with a solution of either 0.1 mM or 0.01 mM 6-oxo-1,4,5,6 tetrahydropyridazine-3-carboxylic acid in an aqueous solution at pH 5.7-5.8. The seeds were placed on moist germination paper and allowed to germinate at 75-85° F. The control seeds were imbibed in aqueous solution containing only the soft soap and glycerol.

[3] = system: wheat seedlings (Var. VitPro); test: Foliar treatment of wheat seedlings, number of tillers (Example 13); conditions: counted at Zadoks GS 15, untreated 3.7
Method: Wheat seedlings were given foliar treatments with a range of concentrations of 6-oxo-1,4,5,6 tetrahydropyridazine-3-carboxylic acid and the seedlings were grown and the numbers of tillers each plant produced was monitored as shown in Table 4. The number of tillers is considered positively related to grain yield. Sets of wheat seedlings (Var. VitPro) were given foliar treatments of 6-oxo-1,4,5,6 tetrahydropyridazine-3-carboxylic acid at concentrations of 0.1 mM, 0.01 mM or 0.001 mM *in a standard nutrient solution. Seedlings were given one foliar treatment at Zadoks GS 12 (FIG. 1); the plants grown in a greenhouse and fed a standard plant nutrient solution. The untreated control plants were sprayed with the nutrient solution containing sodium dodecyl sulfate, 0.1% and glycerol 1.2%. The number of tillers for each plant were counted at Zadoks GS 15 (FIG. 1) and the average number of tillers per plant calculated.

[4] = system: Wheat seeds; test: Wheat seed treatment, seedling emergence at two temperatures (Example 15); conditions: 10 g/ton of seeds
Method: Wheat seeds were treated with 6-oxo-1,4,5,6-tetrahydropyridizin-3-carboxylic acid at two different temperature regimes to investigate the affect on germination. Soil temperature impacts the percentage of seeds germinating and how fast seedlings emerge from the soil. Each of these parameters influences how well the plants develop and ultimately crop yield. […] Wheat seeds were treated with 6-oxo-1,4,5,6 tetrahydropyridazine-3-carboxylic acid (THP) at a rate of 10 g/ton of seeds in accordance with the methodology of example 1. Seeds were planted in 12″×12″ germination trays in a 1″ grid, 100 seeds per tray. Growth media was coarse river sand. Additionally, each cell in the grid received one granule of Osmacote approximately above where the seed was planted. Trays were irrigated every day. The seeds were then allowed to germinate at controlled environment chambers at either 10C (50F) or 20C (68 F) to examine the effects at different temperatures. The number of seedlings emerged was tracked daily.

Question: For `O=C1CCC(C(=O)O)=NN1` [THP, 6-oxo-1,4,5,6 tetrahydropyridazine-3-carboxylic acid], which root biomass [1] is on record?
Answer: The root biomass was 0.83 g, dry weight/plant.

Question: What about the Shoot fresh weight ([2]; seed treatment 0.01 mM) of the same compound?
Answer: Its Shoot fresh weight is 44.7 mg.

Question: What about the Roots fresh weight ([2]; seed treatment 0.01 mM) of the same compound?
Answer: The Roots fresh weight was 48.1 mg.

Question: And the Shoot fresh weight ([2]; seed treatment 0.1 mM)?
Answer: Its Shoot fresh weight is 42.1 mg.

Question: And the Roots fresh weight ([2]; seed treatment 0.1 mM)?
Answer: The Roots fresh weight was 43.8 mg.

Question: What about the “Tillers per plant, average” value ([3]; foliar treatment 0.001 mM at Zadoks GS 12) of the same compound?
Answer: Its value is 4.1.

Question: What about the “Tillers per plant, average” value ([3]; foliar treatment 0.01 mM at Zadoks GS 12) of the same compound?
Answer: Its value is 9.5.

Question: What about the “Tillers per plant, average” value ([3]; foliar treatment 0.1 mM at Zadoks GS 12) of the same compound?
Answer: Its value is 7.4.

Question: What about the “% Emergence” value ([4]; 10 C., 5 days after planting) of the same compound?
Answer: The value was 0%.

Question: And the “% Emergence” value ([4]; 10 C., 6 days after planting)?
Answer: Its value is 0%.

Question: And the “% Emergence” value ([4]; 10 C., 7 days after planting)?
Answer: Its value is 11%.

Question: And the “% Emergence” value ([4]; 10 C., 8 days after planting)?
Answer: The value was 19%.

Question: What about the “% Emergence” value ([4]; 10 C., 9 days after planting) of the same compound?
Answer: Its value is 27%.

Question: What about the “% Emergence” value ([4]; 10 C., 10 days after planting) of the same compound?
Answer: Its value is 60%.

Question: What about the “% Emergence” value ([4]; 10 C., 11 days after planting) of the same compound?
Answer: The value was 68%.

Question: And the “% Emergence” value ([4]; 20 C., 5 days after planting)?
Answer: The value was 14%.

Question: And the “% Emergence” value ([4]; 20 C., 6 days after planting)?
Answer: The value was 48%.

Question: And the “% Emergence” value ([4]; 20 C., 7 days after planting)?
Answer: Its value is 80%.

Question: And the “% Emergence” value ([4]; 20 C., 8 days after planting)?
Answer: Its value is 100%.

Question: And the “% Emergence” value ([4]; 20 C., 9 days after planting)?
Answer: Its value is 100%.

Question: What about the “% Emergence” value ([4]; 20 C., 10 days after planting) of the same compound?
Answer: Its value is 100%.

Question: And the “% Emergence” value ([4]; 20 C., 11 days after planting)?
Answer: Its value is 100%.
